SMILES strings stand for the structures.

The assay deals with Cannabinoid receptor 2 (Homo sapiens, UniProt P34972). The assay can be described thus: Inverse agonist activity at human CB2 receptor expressed in HEK293 cells assessed as […] after 30 mins by HTRF assay.
Cannabinoid receptor 2, sequence (P34972 whole entry): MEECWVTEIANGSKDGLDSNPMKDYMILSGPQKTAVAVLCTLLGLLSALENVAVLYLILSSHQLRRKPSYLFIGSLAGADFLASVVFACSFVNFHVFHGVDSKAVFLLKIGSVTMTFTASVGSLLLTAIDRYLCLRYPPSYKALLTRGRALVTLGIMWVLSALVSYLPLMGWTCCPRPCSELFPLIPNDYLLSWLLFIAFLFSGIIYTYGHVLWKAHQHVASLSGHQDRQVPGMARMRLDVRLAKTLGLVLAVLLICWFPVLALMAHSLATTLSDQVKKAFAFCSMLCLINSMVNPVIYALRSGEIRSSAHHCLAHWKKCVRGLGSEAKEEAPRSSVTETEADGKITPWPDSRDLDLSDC

The EC50 is the concentration giving half of the maximal effect. As to `Cn1c(=O)cc(NC2CCN(S(=O)(=O)C(F)(F)F)CC2)c2cc(C(c3ccc(Cl)cc3)c3ccc(Cl)cc3)ccc21` [US9266835, 49], the 50% effective concentration (EC50) was over 10 µM.

Regarding `O=c1cc(NC2CCN(S(=O)(=O)c3ccccc3)CC2)c2cc(C(c3ccc(Cl)cc3)c3ccc(Cl)cc3)ccc2[nH]1` [US9266835, 80], the EC50 is over 10 µM.

Consider `O=C(O)c1ccc(C(=O)N2CCC(Nc3cc(=O)[nH]c4ccc(C(c5ccc(Cl)cc5)c5ccc(Cl)cc5)cc34)CC2)cc1` [US9266835, 116], for which the EC50 was over 10 µM.

As to `O=C(O)c1ccc(CN2CCC(Nc3cc(=O)[nH]c4ccc(C(c5ccc(Cl)cc5)c5ccc(Cl)cc5)cc34)CC2)cc1` [US9266835, 127], the EC50 is over 10 µM.

Turning to `O=C(O)c1cccc(CN2CCC(Nc3cc(=O)[nH]c4ccc(C(c5ccc(Cl)cc5)c5ccc(Cl)cc5)cc34)CC2)c1` [US9266835, 129], the EC50 is over 10 µM.

As for `COCCOc1cc(NC2CCN(S(=O)(=O)C(F)(F)F)CC2)c2cc(C(c3ccc(Cl)cc3)c3ccc(Cl)cc3)ccc2n1` [US9266835, 530], the EC50 is over 10 µM.

For the compound `O=S(=O)(N1CCC(Nc2ccnc3c(O)cc(C(c4ccc(Cl)cc4)c4ccc(Cl)cc4)cc23)CC1)C(F)(F)F` [US9266835, 541], the EC50 is over 10 µM.

`NCCCCOc1cc(C(c2ccc(Cl)cc2)c2ccc(Cl)cc2)cc2c(NC3CCN(S(=O)(=O)C(F)(F)F)CC3)ccnc12` [US9266835, 542]: the EC50 was over 10 µM.

(Values after BindingDB's records for doi:10.1021/acs.jmedchem.8b01467 (Janssen Research & Development, 2018).)
